Measurements published in patent US10538497B2, “Compounds as indoleamine 2,3-dioxygenase inhibitors” (Merck Sharp & Dohme Corp., priority 2015, dated 2020).
pIC50: −log10 of the molar value.

Columns and labels:
IDO1 [1] = molecular target: T1, IDO1 (Homo sapiens (Human), UniProt P14902); assay: IDO1 Cellular Assay in Hela Cells Stimulated with IFNγ; format: cell-based; settings: Hela cells stimulated with IFNγ 100 ng/mL; read-out: IDO1 HELA Cell Assay, IC50
IDO1 [2] = molecular target: T1, IDO1; assay: IDO1 In Vivo Assay (hIDO1-CT26 murine model); set-up: species or system mouse; settings: oral administration, 100 and 300 mg/kg
Protocol: hIDO1-CT26, a murine cell line generated in house to constitutively express the human IDO1 protein, was cultured in RPMI-1640+10% FBS+500 μM L-tryptophan in a standard cell incubator (37° C., 5% CO2). At 80% confluency, cells are rinsed in TrypLE, then incubated with TrypLE until fully detached (usually 1-5 min), resuspended in complete media, spun down (1000 rpm, 4° C., 5 min), and resuspended in phenol red-free RPMI-1640 before counting.
Two millions hIDO1-CT26 cells (20×10E6 cells/ml) in 50% phenol red-free RPMI-1640/50% Matrigel (growth factor reduced, GFR) are implanted subcutaneously in the right flank of anesthetized immunocompromised animals (CD-1 Nu/Nu, Charles River Labs). Ten days following implantation, tumors reach an average volume of 180 mm^3 at which point animals are randomized into treatment groups.
Animals are treated with IDO1 inhibitors by oral gavage (PO) every 12 h (BID dosing). Based on experimental design, animals will receive a minimum of 1 dose. At various times following the last dose, animals will be euthanized (CO2 asphyxiation), blood will be collected via cardiac puncture for plasma, and tumors will be resected. For plasma preparation, whole blood is transferred to plasma tube, and stored on ice prior to centrifugation. […]

IDO1 [3] = molecular target: T1, IDO1; assay: IDO1 Enzyme Assay; settings: read-out: IDO1 Enzyme Assay, IC50; HIS-tagged recombinant IDO1, 40 nM

T1 sequence (P14902 whole entry): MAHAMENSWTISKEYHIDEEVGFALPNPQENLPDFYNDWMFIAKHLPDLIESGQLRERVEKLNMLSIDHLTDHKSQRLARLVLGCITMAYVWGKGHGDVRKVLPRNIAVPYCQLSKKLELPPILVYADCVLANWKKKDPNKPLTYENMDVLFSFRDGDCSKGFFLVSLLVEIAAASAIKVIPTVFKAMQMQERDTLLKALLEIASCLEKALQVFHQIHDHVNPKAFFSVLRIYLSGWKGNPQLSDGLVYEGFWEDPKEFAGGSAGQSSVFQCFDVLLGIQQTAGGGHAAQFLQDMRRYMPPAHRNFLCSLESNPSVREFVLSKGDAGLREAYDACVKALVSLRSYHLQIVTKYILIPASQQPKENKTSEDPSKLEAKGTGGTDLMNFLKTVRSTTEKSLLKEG

| Structure (SMILES) | pIC50 (IDO1 [1]) | kynurenine levels in both plasma and tumor (IDO1 [2]) | pIC50 (IDO1 [3]) |
| --- | --- | --- | --- |
| O=C(CSc1nonc1/C(=N/O)Nc1ccc(F)c(Br)c1)NC[C@@H](O)CO [Example 42, (R)-2-((4-(N-(3-bromo-4-fluorophenyl)-N′-hydroxycarbamimidoyl)-1,2,5-oxadiazol-3-yl)thio)-N-(2,3-dihydroxypropyl)acetamide] | 7.46 | dose-dependent reduction | 7.32 |
| NC(=O)NCCSc1nonc1/C(=N/O)Nc1ccc(F)c(Br)c1 [Example 46, N-(3-Bromo-4-fluorophenyl)-N′-hydroxy-4-((2-ureidoethyl)thio)-1,2,5-oxadiazole-3-carboximidamide] | 7.87 | dose-dependent reduction | 7.47 |
